The values below are quoted from earlier work in US5346701A, “Transmucosal delivery of macromolecular drugs” (TheraTech, Inc., priority 1993, dated 1994).

For data set [1] the following is noted: nasal membranes.
For data set [2], the system named is delayed-typehypersensitivity.
The test system of data set [3] is vascular smooth muscle cells.
The next data set deals with platelets. The settings on record: in vitro.
Data set [4] deals with antithrombin III (AT III). The settings on record: clinically used heparin.

As for `C[C@H](CCC(=O)O)[C@H]1CC[C@H]2[C@@H]3[C@H](O)C[C@@H]4C[C@H](O)CC[C@]4(C)[C@H]3C[C@H](O)[C@]12C` [cholate], in data set [1], the “order of effectiveness as enhancer of insulin absorption” value (from here on “order of effectiveness”) was “deoxycholate<chenodeoxycholate<cholate<ursodeoxycholate”.

As for `C[C@H](CCC(=O)O)[C@H]1CC[C@H]2[C@@H]3[C@@H](O)C[C@@H]4C[C@H](O)CC[C@]4(C)[C@H]3CC[C@]12C` [ursodeoxycholate], the “order of effectiveness” value in [1] is reported as “deoxycholate<chenodeoxycholate<cholate<ursodeoxycholate”.

On to `C[C@H](CCC(=O)O)[C@H]1CC[C@H]2[C@@H]3[C@H](O)C[C@@H]4C[C@H](O)CC[C@]4(C)[C@H]3CC[C@]12C` [chenodeoxycholate], for which the “order of effectiveness” value in data set [1] is “deoxycholate<chenodeoxycholate<cholate<ursodeoxycholate”.

For heparin, the delayed-type hypersensitivity result in [2] was “suppresses”. Also, the “proliferation of vascular smooth muscle cells” value in data set [3] was “inhibits the proliferation”. Besides, in the data set with renal mesengial cells, the “proliferation of renal mesengial cells” value is “inhibits the proliferation”. Moreover, in the data set on platelets, the release of platelets entry was “enhances the release of platelets”. The “acceleration of rate of thrombin inactivation” value in the data set on thrombin is reported as “up to 2000 -fold”. Moreover, the “prolongation of partial thromboplastin time or release of plasma lipase activity” value (colon of a baboon, without bile salt) is recorded as “not apparent”. Further, the “activity (partial thromboplastin time / plasma lipase)” value (with sodium cholate or deoxycholate in the formulation) is “significant activity was detected”. Also, the angiogenesis entry in the data set with angiogenesis is on record as “inhibits angiogenesis”. In addition, the “proportion of heparin having high affinity for AT III” value in [4] is recorded as “Approximately 33%”.
